Laboratory results as given in ChEMBL document CHEMBL2151020, “JBIR-129 and -139, cytotoxic 34-membered polyol macrolides of microbial origin” (J Nat Prod, 2012).

The compounds below were run on SK-OV-3 (assay: Cytotoxicity against human SKOV3 cells after 72 hrs by WST8 assay). Details: SK-OV-3, 72 h.
Format: functional, cell-based
Compound `CCC(O[C@H]1CC[C@H](O[C@H]2CC[C@H](O)[C@@H](C)O2)[C@@H](C)O1)C(C)C(O)C(C)C(O)C(C)C1C/C=C/C=C/C(O)CC(O)C(C)C(O)CC(O)C(C)C2CC(O)C(O)C(O)(CC(O[C@@H]3O[C@H](C)[C@@H](O)[C@H](O[C@H]4C[C@@H](O)[C@H](O)[C@@H](C)O4)[C@H]3O[C@@H]3O[C@H](C)[C@@H](O)[C@H](O)[C@H]3O)C(C)CCC(O)CC(O)C/C=C/C=C/C(=O)O1)O2` (stereo partly drawn) has an IC50 of 300 nM. With `CCC(O[C@H]1CC[C@H](O[C@H]2CC[C@H](O)[C@@H](C)O2)[C@@H](C)O1)C(C)C(O)C(C)C(O)C(C)C1C/C=C/C=C/C(O)CC(O)C(C)C(O)CC(O[C@@H]2O[C@H](CO)[C@H](O)[C@H](O)[C@H]2NC(C)=O)C(C)C2CC(O)C(O)C(O)(CC(O[C@@H]3O[C@H](C)[C@@H](O)[C@H](O[C@H]4C[C@@H](O)[C@H](O)[C@@H](C)O4)[C@H]3O[C@@H]3O[C@H](C)[C@@H](O)[C@H](O)[C@H]3O)C(C)CCC(O)CC(O)C/C=C/C=C/C(=O)O1)O2` (stereo partly drawn) the IC50 was 400 nM. Work on `COc1cccc2c1C(=O)c1c(O)c3c(c(O)c1C2=O)C[C@@](O)(C(=O)CO)C[C@@H]3O[C@H]1C[C@H](N)[C@H](O)[C@H](C)O1` [DOXORUBICIN] yielded an IC50 of 30 nM.
